System: surface GluA1 (AMPAR) in hippocampal neurons
Assay: Aβ-induced AMPAR endocytosis: surface GluA1 in cultured hippocampal neurons
Type: cell-based, rat
Details: for GluA1 surface expression (GluA1 puncta normalized to SV2 puncta and to naïve cultures): 2 hrs, naïve 100%±4%, n=3
Experimental: A. Micrograph showing GluA2 surface expression upon Aβ treatment in the presence or absence of Nutlin-3. Rat hippocampal neurons were cultured, and treated with Aβ or Aβ together with either Nutlin-3 (5 μM) or HLI373 (15 μM) for 2 hours. The final concentration of Aβ was 0.3 ng/mL. Naïve and Nutlin-3 and HLI373 treatments, without Aβ treatment, were used as controls. Surface expression of AMPARs was measured by labeling the cultured neurons in vivo with an antibody to the AMPAR subunit GluA1, followed by confocal microscopy and immunofluorescence quantification by MetaMorph. The number of GluA1 puncta was normalized to SV2 puncta (a presynaptic marker) and to the value in control naïve cultures. […] Scale bar=5 μm. B. Bar graph showing quantification of the percentage of surface GluA1 in response to the various treatment described in A. Results are presented as mean±SEM.
Soluble amyloid beta (Aβ) peptides contribute directly to synapse loss and decreased dendritic spine density and glutamate receptors at the synapse. Moreover, Aβ has been reported to induce AMPAR internalization in cultured neurons. To evaluate the effect of Mdm2 inhibitors on this process, cultured rat hippocampal neurons were treated for 2 hrs with Aβ (or Aβ together with either Nutlin-3 (5 μM) or HLI-373 (15 μM). Aβ can be prepared from 7PA2 Chinese hamster ovary (CHO) cells stably expressing human amyloid precursor protein (APP)751 containing the V717 mutation (Walsh et al., 2005; Shankar et al., 2007; Shankar et al., 2011), and is also available commercially from, e.g., rPeptide (Bogart, G A). The concentration of Aβ in the hippocampal cultures was 0.3 ng/mL. Naïve and Nutlin-3 and HLI-373 treatments were used as controls. Surface expression of AMPARs was measured by labeling the cultured neurons in vivo with an antibody to the AMPAR subunit GluA1, followed by confocal microscopy and immunofluorescence quantification by MetaMorph. The number of GluA1 puncta was normalized to SV2 puncta (a presynaptic marker) and to the value in control naïve cultures (see FIGS. 8A and B).
Minimum inhibitor concentrations of Nutlin-3a or HLI-373, as well as any other Mdm2 inhibitor identified using the screens described supra, can be readily determined by using different ranges of inhibitor concentrations and assessing the effects of the particular concentrations on surface expression of AMPARs. Similar results are expected with other inhibitors of PSD-95 ubiquitination by Mdm2, such as PSD-95 inhibitors.

With `CN(C)CCCNc1c2c(=O)n(C)c(=O)nc-2n(C)c2ccccc12` [HLI-373] the “effect on loss of surface GluA1 induced by Aβ” value (Aβ 0.3 ng/mL, 2 hours, Nutlin-3 5 μM, HLI373 15 μM) was “prevented the loss of surface GluA1 induced by Aβ treatment”, the “GluA1 surface expression (GluA1 puncta normalized to SV2 puncta and to naïve cultures)” value (co-treatment with Aβ 0.3 ng/mL, Nutlin 5 μM, HLI373 15 μM) was 132.18%±11.33% and the “GluA1 surface expression (GluA1 puncta normalized to SV2 puncta and to naïve cultures)” value (inhibitor alone, without Aβ, Nutlin-3 5 μM, HLI-373 15 μM) was 170.95%±5.37%.

— US10016414B2, “Modulation of ubiquitination of synaptic proteins for the treatment of neurodegenerative and psychiatric disorders” (UNIVERSITY OF MASSACHUSETTS, priority 2010, dated 2018)
